Measured values reported in patent publication US20130012546A1 (priority 2009, published 2013).

Assay: logP(HCOOH) by HPLC
Format: physicochemical
Settings: HPLC on reversed phase columns, pH 2.7, 0.1% formic acid in water / acetonitrile gradient

In order of falling log p:
1. CCC(OC1CCCCCC1)C(=O)Nc1cccc(CON=C(c2ccccc2)c2nnnn2C)n1 (stereo not drawn) [compound 195]  5.27
2. CCC(OC1CCCCC1)C(=O)Nc1cccc(CON=C(c2ccccc2)c2nnnn2C)n1 (stereo not drawn) [compound 193]  4.88
3. CC1CCCC(OC(C)C(=O)Nc2cccc(CON=C(c3ccccc3)c3nnnn3C)n2)C1 (stereo not drawn) [compound 197]  4.81
4. CCC(OC1CCCC1)C(=O)Nc1cccc(CON=C(c2ccccc2)c2nnnn2C)n1 (stereo not drawn) [compound 196]  4.51
5. CCC(OC1CCC1)C(=O)Nc1cccc(CON=C(c2ccccc2)c2nnnn2C)n1 (stereo not drawn) [compound 194]  4.11

Same assay, conditions: HPLC on reversed phase columns, pH 2.7, 0.1% formic acid in water / acetonitrile, linear gradient 10% to 95% acetonitrile; EEC directive 79/831 Annex V.A8

In order of rising log p:
1. C=C=CCCC(=O)Nc1nc(CON=C(c2ccccc2)n2nnnc2C)cs1 [compound 139]  3.09
2. C=C=CCCC(=O)Nc1cccc(CON=C(c2ccccc2)n2nnnc2C)n1 [compound 141]  3.23
3. C#CCOC(CC)C(=O)Nc1cccc(CON=C(c2ccccc2)c2nnnn2C)n1 (stereo not drawn) [compound 121]  3.27
4. C#CCOC(CC)C(=O)Nc1cccc(CON=C(c2ccccc2)n2nnnc2C)n1 (stereo not drawn) [compound 119]  3.33
5. CC(OC1CCC1)C(=O)Nc1nc(CON=C(c2ccccc2)c2nnnn2C)cs1 (stereo not drawn) [compound 172]  3.39
6. C#CCOC(C(=O)Nc1nc(CON=C(c2ccccc2)c2nnnn2C)cs1)C(C)C (stereo not drawn) [compound 117]  3.44
7. Cn1nnnc1C(=NOCc1csc(NC(=O)OCCC2CC2)n1)c1ccccc1 [compound 149]  3.46
8. Cc1nnnn1C(=NOCc1csc(NC(=O)C(C)OC2CCC2)n1)c1ccccc1 (stereo not drawn) [compound 165]  3.46
9. Cc1nnnn1C(=NOCc1csc(NC(=O)OCCC2CC2)n1)c1ccccc1 [compound 145]  3.5
10. C#CCOC(C(=O)Nc1cccc(CON=C(c2ccccc2)c2nnnn2C)n1)C(C)C (stereo not drawn) [compound 122]  3.63
11. C=C=CCCCOC(=O)Nc1nc(CON=C(c2ccccc2)c2nnnn2C)cs1 [compound 140]  3.69
12. Cn1nnnc1C(=NOCc1csc(NC(=O)COCC#C[Si](C)(C)C)n1)c1ccccc1 [compound 118]  3.7
13. C#CCOC(C(=O)Nc1cccc(CON=C(c2ccccc2)n2nnnc2C)n1)C(C)C (stereo not drawn) [compound 120]  3.7
14. CC(OC1CCC1)C(=O)Nc1cccc(CON=C(c2ccccc2)c2nnnn2C)n1 (stereo not drawn) [compound 192]  3.7
15. Cn1nnnc1C(=NOCc1cccc(NC(=O)OCCC2CC2)n1)c1ccccc1 [compound 159]  3.72
16. Cc1nnnn1C(=NOCc1cccc(NC(=O)C(C)OC2CCC2)n1)c1ccccc1 (stereo not drawn) [compound 185]  3.74
17. CCC(OC1CCC1)C(=O)Nc1nc(CON=C(c2ccccc2)c2nnnn2C)cs1 (stereo not drawn) [compound 174]  3.76
18. CON=C(C(=O)Nc1nc(CON=C(c2ccccc2)c2nnnn2C)cs1)c1ccc(C)cc1 [compound 130]  3.79
19. Cc1nnnn1C(=NOCc1cccc(NC(=O)OCCC2CC2)n1)c1ccccc1 [compound 155]  3.81
20. CCC(OC1CCC1)C(=O)Nc1nc(CON=C(c2ccccc2)n2nnnc2C)cs1 (stereo not drawn) [compound 167]  3.83
21. CON=C(C(=O)Nc1nc(CON=C(c2ccccc2)n2nnnc2C)cs1)c1ccc(C)cc1 [compound 125]  3.85
22. Cn1nnnc1C(=NOCc1cccc(NC(=O)OCC2CCC2)n1)c1ccccc1 [compound 163]  3.92
23. C=C=CCCCOC(=O)Nc1cccc(CON=C(c2ccccc2)n2nnnc2C)n1 [compound 142]  4.01
24. CON=C(C(=O)Nc1nc(CON=C(c2ccccc2)c2nnnn2C)cs1)c1ccc(C)cc1 [compound 129]  4.05
25. CON=C(C(=O)Nc1cccc(CON=C(c2ccccc2)n2nnnc2C)n1)c1ccc(F)cc1 [compound 136]  4.11
26. Cc1nnnn1C(=NOCc1cccc(NC(=O)C(C)OC2CCCC2)n1)c1ccccc1 (stereo not drawn) [compound 183]  4.12
27. CON=C(C(=O)Nc1nc(CON=C(c2ccccc2)n2nnnc2C)cs1)c1ccc(C)cc1 [compound 124]  4.13
28. CCON=C(C(=O)Nc1nc(CON=C(c2ccccc2)n2nnnc2C)cs1)c1ccc(C)cc1 [compound 126]  4.13
29. CCC(OC1CCCC1)C(=O)Nc1nc(CON=C(c2ccccc2)c2nnnn2C)cs1 (stereo not drawn) [compound 175]  4.16
30. CON=C(C(=O)Nc1cccc(CON=C(c2ccccc2)n2nnnc2C)n1)c1ccccc1Cl [compound 131]  4.18
31. CCC(OC1CCC1)C(=O)Nc1cccc(CON=C(c2ccccc2)n2nnnc2C)n1 (stereo not drawn) [compound 187]  4.2
32. CCC(OC1CCCC1)C(=O)Nc1nc(CON=C(c2ccccc2)n2nnnc2C)cs1 (stereo not drawn) [compound 168]  4.24
33. CC(OC(=O)Nc1nc(CON=C(c2ccccc2)c2nnnn2C)cs1)C1CCCC1 (stereo not drawn) [compound 152]  4.25
34. Cn1nnnc1C(=NOCc1csc(NC(=O)OCCC2CCCC2)n1)c1ccccc1 [compound 150]  4.26
35. CON=C(C(=O)Nc1cccc(CON=C(c2ccccc2)c2nnnn2C)n1)c1ccc(C)cc1 [compound 138]  4.27
36. Cc1nnnn1C(=NOCc1csc(NC(=O)OC(C)C2CCCC2)n1)c1ccccc1 (stereo not drawn) [compound 148]  4.3
37. Cc1nnnn1C(=NOCc1csc(NC(=O)OCCC2CCCC2)n1)c1ccccc1 [compound 146]  4.33
38. CCC(OC1CCCCC1)C(=O)Nc1nc(CON=C(c2ccccc2)c2nnnn2C)cs1 (stereo not drawn) [compound 173]  4.42
39. CON=C(C(=O)Nc1cccc(CON=C(c2ccccc2)n2nnnc2C)n1)c1ccc(C)cc1 [compound 134]  4.44
40. CC1CCCC(OC(C)C(=O)Nc2nc(CON=C(c3ccccc3)c3nnnn3C)cs2)C1 (stereo not drawn) [compound 177]  4.44
41. CC1CCC(OC(C)C(=O)Nc2nc(CON=C(c3ccccc3)c3nnnn3C)cs2)CC1 (stereo not drawn) [compound 178]  4.44
42. Cc1nnnn1C(=NOCc1cccc(NC(=O)C(C)OC2CCCCC2)n1)c1ccccc1 (stereo not drawn) [compound 182]  4.46
43. CCON=C(C(=O)Nc1nc(CON=C(c2ccccc2)n2nnnc2C)cs1)c1ccc(C)cc1 [compound 127]  4.49
44. CON=C(C(=O)Nc1cccc(CON=C(c2ccccc2)n2nnnc2C)n1)c1ccc(Cl)cc1 [compound 135]  4.51
45. CC(OC1CCCCC1)C(=O)Nc1nc(CON=C(c2ccccc2)c2nnnn2C2CC2)cs1 (stereo not drawn) [compound 164]  4.53
46. Cc1nnnn1C(=NOCc1csc(NC(=O)C(C)OC2CCCC(C)C2)n1)c1ccccc1 (stereo not drawn) [compound 170]  4.53
47. Cc1nnnn1C(=NOCc1csc(NC(=O)C(C)OC2CCC(C)CC2)n1)c1ccccc1 (stereo not drawn) [compound 171]  4.53
48. CCON=C(C(=O)Nc1nc(CON=C(c2ccccc2)c2nnnn2C)cs1)c1ccc(Cl)cc1 [compound 128]  4.56
49. CCC(OC1CCCCC1)C(=O)Nc1nc(CON=C(c2ccccc2)n2nnnc2C)cs1 (stereo not drawn) [compound 166]  4.56
50. CC(OC(=O)Nc1nc(CON=C(c2ccccc2)c2nnnn2C)cs1)C1CCCCC1 (stereo not drawn) [compound 151]  4.58
51. CCON=C(C(=O)Nc1nc(CON=C(c2ccccc2)n2nnnc2C)cs1)c1ccc(Cl)cc1 [compound 123]  4.61
52. Cn1nnnc1C(=NOCc1cccc(NC(=O)OCCC2CCCC2)n1)c1ccccc1 [compound 160]  4.61
53. CC(OC(=O)Nc1cccc(CON=C(c2ccccc2)c2nnnn2C)n1)C1CCCC1 (stereo not drawn) [compound 162]  4.61
54. CCC(OC1CCCC1)C(=O)Nc1cccc(CON=C(c2ccccc2)n2nnnc2C)n1 (stereo not drawn) [compound 188]  4.65
55. Cc1nnnn1C(=NOCc1csc(NC(=O)OC(C)C2CCCCC2)n1)c1ccccc1 (stereo not drawn) [compound 147]  4.66
56. CON=C(C(=O)Nc1cccc(CON=C(c2ccccc2)n2nnnc2C)n1)c1ccc(Cl)cc1 [compound 132]  4.69
57. Cc1nnnn1C(=NOCc1cccc(NC(=O)OCCC2CCCC2)n1)c1ccccc1 [compound 156]  4.71
58. Cc1nnnn1C(=NOCc1cccc(NC(=O)OC(C)C2CCCC2)n1)c1ccccc1 (stereo not drawn) [compound 158]  4.71
59. Cn1nnnc1C(=NOCc1csc(NC(=O)C(OC2CCCCC2)c2ccccc2)n1)c1ccccc1 (stereo not drawn) [compound 179]  4.82
60. CCON=C(C(=O)Nc1cccc(CON=C(c2ccccc2)c2nnnn2C)n1)c1ccc(Cl)cc1 [compound 137]  4.83
61. Cc1nnnn1C(=NOCc1cccc(NC(=O)C(C)OC2CCCCCC2)n1)c1ccccc1 (stereo not drawn) [compound 184]  4.86
62. CCC(OC1CCCCCC1)C(=O)Nc1nc(CON=C(c2ccccc2)c2nnnn2C)cs1 (stereo not drawn) [compound 176]  4.87
63. CCC(OC1CCCCC1)C(=O)Nc1cccc(CON=C(c2ccccc2)n2nnnc2C)n1 (stereo not drawn) [compound 186]  4.91
64. CCON=C(C(=O)Nc1cccc(CON=C(c2ccccc2)n2nnnc2C)n1)c1ccc(Cl)cc1 [compound 133]  4.93
65. CCC(OC1CCCCCC1)C(=O)Nc1nc(CON=C(c2ccccc2)n2nnnc2C)cs1 (stereo not drawn) [compound 169]  4.93
66. CC(OC1CCCCC1)C(=O)Nc1cccc(CON=C(c2ccccc2)c2nnnn2C2CC2)n1 (stereo not drawn) [compound 180]  4.93
67. Cc1nnnn1C(=NOCc1cccc(NC(=O)C(C)OC2CCC(C)CC2)n1)c1ccccc1 (stereo not drawn) [compound 191]  4.93
68. Cc1nnnn1C(=NOCc1cccc(NC(=O)C(C)OC2CCCC(C)C2)n1)c1ccccc1 (stereo not drawn) [compound 190]  4.96
69. CC(OC(=O)Nc1cccc(CON=C(c2ccccc2)c2nnnn2C)n1)C1CCCCC1 (stereo not drawn) [compound 161]  4.98
70. Cc1nnnn1C(=NOCc1cccc(NC(=O)OC(C)C2CCCCC2)n1)c1ccccc1 (stereo not drawn) [compound 157]  5.08
71. CC(OC1CCCCC1)C(=O)Nc1ccc(Br)c(CON=C(c2ccccc2)c2nnnn2C)n1 (stereo not drawn) [compound 181]  5.11
72. Cc1nnnn1C(=NOCc1cccc(NC(=O)OC2CC3CCC2(C)C3(C)C)n1)c1ccccc1 (stereo not drawn) [compound 143]  5.3
73. CCC(OC1CCCCCC1)C(=O)Nc1cccc(CON=C(c2ccccc2)n2nnnc2C)n1 (stereo not drawn) [compound 189]  5.41
